Here are results for 25 compounds from patent US20060063759A1, “Tricyclic steroid hormone nuclear receptor modulators” (priority 2002, published 2006).

Broadly, the melting point is the temperature of the solid-liquid transition. The term Ki denotes the equilibrium dissociation constant of an inhibitor or competing ligand from its target.

Structures are written as SMILES.

Test system in the first data set: not given
Test: not given
Conditions: not given
For the compound `CNS(=O)(=O)c1cccc(C=C2c3ccccc3CCc3ccccc32)c1` [Example 1, 3-(10,11-Dihydro-dibenzo[a,d]cyclohepten-5-ylidenemethyl)-N-methyl-benzenesulfonamide], the melting point was found to be 153.9 °C. Compound `Cc1cc(S(=O)(=O)N2CCOCC2)c(C=C2c3ccccc3CCc3ccccc32)cc1Cl` [Example 12, 4-[4-Chloro-2-(10,11-dihydro-dibenzo[a,d]cyclohepten-5-ylidenemethyl)-5-methyl-benzenesulfonyl]-morpholine] returned a melting point of 194.7 °C. The same measure, in the same setting: for `Cc1ccc(C=C2c3ccccc3CCc3ccccc32)c(S(=O)(=O)Nc2ccccc2)c1` [Example 13] the value was 220.4 °C; for `Cc1ccc(C=C2c3ccccc3CCc3ccccc32)c(S(=O)(=O)NC2CC2)c1` [Example 14, N-Cyclopropyl-2-(10,11-dihydro-dibenzo[a,d]cyclohepten-5-ylidenemethyl)-5-methyl-benzenesulfonamide], 160.8 °C. Take `Cc1ccc(C=C2c3ccccc3CCc3ccccc32)c(S(=O)(=O)NCc2ccccc2)c1` [Example 15, N-Benzyl-2-(10,11-dihydro-dibenzo[a,d]cyclohepten-5-ylidenemethyl)-5-methyl-benzenesulfonamide]: the melting point was 138.3 °C. `CCNS(=O)(=O)c1cc(C)ccc1C=C1c2ccccc2CCc2ccccc21` [Example 17, 2-(10,11-Dihydro-dibenzo[a,d]cyclohepten-5-ylidenemethyl)-N-ethyl-5-methyl-benzenesulfonamide] yielded a melting point of 172.4 °C. The same measure, in the same setting: for `Cc1ccc(C=C2c3ccccc3CCc3ccccc32)c(S(=O)(=O)N(C)C)c1` [Example 19, 2-(10,11-Dihydro-dibenzo[a,d]cyclohepten-5-ylidenemethyl)-5,N,N-trimethyl-benzenesulfonamide] the value was 186.6 °C; for `CCCNS(=O)(=O)c1cc(C)ccc1C=C1c2ccccc2CCc2ccccc21` [Example 20, 2-(10,11-Dihydro-dibenzo[a,d]cyclohepten-5-ylidenemethyl)-5-methyl-N-propyl-benzenesulfonamide], 149.8 °C; for `Cc1ccc(C=C2c3ccccc3CCc3ccccc32)c(S(=O)(=O)N2CCOCC2)c1` [Example 22, 4-[2-(10,11-Dihydro-dibenzo[a,d]cyclohepten-5-ylidenemethyl)-5-methyl-benzenesulfonyl]-morpholine], 157.2 °C.

For the compound `Cc1ccc(C=C2c3ccccc3CCc3ccccc32)c(S(=O)(=O)NCC(F)(F)F)c1` [Example 23, 2-(10,11-Dihydro-dibenzo[a,d]cyclohepten-5-ylidenemethyl)-5-methyl-N-(2,2,2-trifluoro-ethyl)-benzenesulfonamide], the melting point was 100.7 °C. Same read-out and setting: under `NS(=O)(=O)c1cccc(C=C2c3ccccc3CCc3ccccc32)c1` [Example 24, 3-(10,11-Dihydro-dibenzo[a,d]cyclohepten-5-ylidenemethyl)-benzenesulfonamide] stands 204 °C. Still for that read-out and setting: under `CN(C)S(=O)(=O)c1cccc(C=C2c3ccccc3CCc3ccccc32)c1` [Example 25, 3-(10,11-Dihydro-dibenzo[a,d]cyclohepten-5-ylidenemethyl)-N,N-dimethyl-benzenesulfonamide] stands 167.3 °C.

Regarding `Brc1cccc(C=C2c3ccccc3CCc3ccccc32)c1` [Example 28, 5-(3-Bromo-benzylidene)-10,11-dihydro-5H-dibenzo-[a,d]cycloheptene], the melting point worked out at 104.7 °C. Still for that read-out and setting: for `Brc1ccccc1C=C1c2ccccc2CCc2ccccc21` [Example 29, 5-(2-Bromo-benzylidene)-10,11-dihydro-5H-dibenzo-[a,d]cycloheptene] the value was 122.7 °C. On the same count and under the same terms, for `COc1ccc(C=C2c3ccccc3CCc3ccccc32)cc1` [Example 33, 5-(4-Methoxy-benzylidene)-10,11-dihydro-5H-dibenzo-[a,d]cycloheptene] the value was 116.8 °C. `COc1ccc(C=C2c3ccccc3CCc3ccccc32)cc1Br` [Example 34, 5-(3-Bromo-4-methoxy-benzylidene)-10,11-dihydro-5H-dibenzo[a,d]cycloheptene] registered a melting point of 140.7 °C. The same measure, in the same setting: under `COc1ccc(C=C2c3ccccc3CCc3ccccc32)cc1OC` [Example 36, 5-(3,4-Dimethoxy-benzylidene)-10,11-dihydro-5H-dibenzo[a,d]cycloheptene] stands 102.8 °C; under `Nc1cc(C=C2c3ccccc3CCc3ccccc32)ccc1O` [Example 63, 2-Amino-4-(10,11-dihydro-dibenzo[a,d]cyclohepten-5-ylidenemethyl)-phenol], 158.8 °C; under `FC(F)Oc1ccccc1C=C1c2ccccc2CCc2ccccc21` [Example 66, 5-(2-Difluoromethoxy-benzylidene)-10,11-dihydro-5H-dibenzo[a,d]cycloheptene], 81.1 °C. The same measure, in the same setting: under `FC(F)Oc1ccc(C=C2c3ccccc3CCc3ccccc32)cc1` [Example 67, 5-(4-Difluoromethoxy-benzylidene)-10,11-dihydro-5H-dibenzo[a,d]cycloheptene] stands 65.8 °C.

`COc1ccc(C=C2c3ccccc3CCc3ccccc32)cc1N` [Example 89, 5-(10,11-Dihydro-dibenzo[a,d]cyclohepten-5-ylidenemethyl)-2-methoxy-phenylamine] had a melting point of 62.7 °C. Same read-out and setting: under `COc1ccc(C=C2c3ccccc3CCc3ccccc32)cc1NS(C)(=O)=O` [Example 97, N-[5-(10,11-Dihydro-dibenzo[a,d]cyclohepten-5-ylidenemethyl)-2-methoxy-phenyl]-methanesulfonamide] stands 192.1 °C.

Regarding `CC(=O)Nc1ccccc1C=C1c2ccccc2CCc2ccccc21` [Example 115, N-[2-(10,11-Dihydro-dibenzo[a,d]cyclohepten-5-ylidenemethyl)-phenyl]-acetamide], the melting point was determined as 189.7 °C. Same read-out and setting: under `CN(c1cccc(C=C2c3ccccc3CCc3ccccc32)c1)S(C)(=O)=O` [Example 124, N-[3-(10,11-Dihydro-dibenzo[a,d]cyclohepten-5-ylidenemethyl)-phenyl]-N-methyl-methanesulfonamide] stands 124.2 °C. On the same count and under the same terms, for `Cc1nc2c(o1)CCc1ccccc1/C2=C/c1cccc(NS(C)(=O)=O)c1` [Example 247, N-[3-(2-Methyl-9,10-dihydro-1-oxa-3-aza-benzo[f]azulen-4-ylidenemethyl)-phenyl]-methanesulfonamide] the value was 184.6 °C.

The next data set concerns the target T1, glucocorticoid receptor (Homo sapiens, UniProt P04150).
T1 construct: containing 50-200 ug of A549 cell extract and 1.86 nM [^3H]-dexamethasone; host or cells: A549 human lung epithelial cells (sonicated cell extract)
T1 sequence (P04150 1-777): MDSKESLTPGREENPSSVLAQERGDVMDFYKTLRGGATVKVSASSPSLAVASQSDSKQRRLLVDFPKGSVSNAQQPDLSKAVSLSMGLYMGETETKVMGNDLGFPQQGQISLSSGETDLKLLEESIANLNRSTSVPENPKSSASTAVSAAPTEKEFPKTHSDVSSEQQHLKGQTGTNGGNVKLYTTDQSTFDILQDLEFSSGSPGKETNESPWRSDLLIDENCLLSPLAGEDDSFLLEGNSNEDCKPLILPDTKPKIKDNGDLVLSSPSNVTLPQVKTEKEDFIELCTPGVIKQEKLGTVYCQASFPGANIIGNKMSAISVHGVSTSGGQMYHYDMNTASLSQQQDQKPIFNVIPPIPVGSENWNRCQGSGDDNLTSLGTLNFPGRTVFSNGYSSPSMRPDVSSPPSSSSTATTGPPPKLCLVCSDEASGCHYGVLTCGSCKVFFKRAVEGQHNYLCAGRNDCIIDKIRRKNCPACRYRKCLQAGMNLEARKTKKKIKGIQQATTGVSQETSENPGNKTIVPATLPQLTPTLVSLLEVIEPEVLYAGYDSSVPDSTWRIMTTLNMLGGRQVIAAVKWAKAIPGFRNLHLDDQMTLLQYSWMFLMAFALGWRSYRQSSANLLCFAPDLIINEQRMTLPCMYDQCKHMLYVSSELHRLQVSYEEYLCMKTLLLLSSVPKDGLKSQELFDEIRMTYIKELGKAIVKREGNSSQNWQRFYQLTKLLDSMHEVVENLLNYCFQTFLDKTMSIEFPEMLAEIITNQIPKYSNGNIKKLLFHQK
The data set can be described thus: Glucocorticoid Receptor Binding Assay ([3H]-dexamethasone, A549 cell extract). The settings on record: [3H]-dexamethasone binding, read-out: GR Ki. The method, boiled down:
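A549 cell extract (50–200 ug) incubated with 1.86 nM [3H]-dexamethasone and test compound for 16 h at 4 °C in Tris-HCl pH 7.2 buffer with glycerol and molybdate. Unbound radioligand removed by dextran-coated charcoal, then supernatant bound counts measured by scintillation.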
Consider `CNS(=O)(=O)c1cccc(C=C2c3ccccc3CCc3ccccc32)c1` [Example 1, 3-(10,11-Dihydro-dibenzo[a,d]cyclohepten-5-ylidenemethyl)-N-methyl-benzenesulfonamide], for which the Ki was below 0.5 µM.

The next data set has as its target T2, human MR (Homo sapiens, UniProt P08235).
T2 construct: The full length human MR gene is cloned from a human kidney or human brain cDNA library; His tag from the pAcHLT vector (own knowledge); made in house; host or cells: Sf9 insect cells (baculovirus, pAcHLT transfer vector)
T2 sequence (P08235 1-984): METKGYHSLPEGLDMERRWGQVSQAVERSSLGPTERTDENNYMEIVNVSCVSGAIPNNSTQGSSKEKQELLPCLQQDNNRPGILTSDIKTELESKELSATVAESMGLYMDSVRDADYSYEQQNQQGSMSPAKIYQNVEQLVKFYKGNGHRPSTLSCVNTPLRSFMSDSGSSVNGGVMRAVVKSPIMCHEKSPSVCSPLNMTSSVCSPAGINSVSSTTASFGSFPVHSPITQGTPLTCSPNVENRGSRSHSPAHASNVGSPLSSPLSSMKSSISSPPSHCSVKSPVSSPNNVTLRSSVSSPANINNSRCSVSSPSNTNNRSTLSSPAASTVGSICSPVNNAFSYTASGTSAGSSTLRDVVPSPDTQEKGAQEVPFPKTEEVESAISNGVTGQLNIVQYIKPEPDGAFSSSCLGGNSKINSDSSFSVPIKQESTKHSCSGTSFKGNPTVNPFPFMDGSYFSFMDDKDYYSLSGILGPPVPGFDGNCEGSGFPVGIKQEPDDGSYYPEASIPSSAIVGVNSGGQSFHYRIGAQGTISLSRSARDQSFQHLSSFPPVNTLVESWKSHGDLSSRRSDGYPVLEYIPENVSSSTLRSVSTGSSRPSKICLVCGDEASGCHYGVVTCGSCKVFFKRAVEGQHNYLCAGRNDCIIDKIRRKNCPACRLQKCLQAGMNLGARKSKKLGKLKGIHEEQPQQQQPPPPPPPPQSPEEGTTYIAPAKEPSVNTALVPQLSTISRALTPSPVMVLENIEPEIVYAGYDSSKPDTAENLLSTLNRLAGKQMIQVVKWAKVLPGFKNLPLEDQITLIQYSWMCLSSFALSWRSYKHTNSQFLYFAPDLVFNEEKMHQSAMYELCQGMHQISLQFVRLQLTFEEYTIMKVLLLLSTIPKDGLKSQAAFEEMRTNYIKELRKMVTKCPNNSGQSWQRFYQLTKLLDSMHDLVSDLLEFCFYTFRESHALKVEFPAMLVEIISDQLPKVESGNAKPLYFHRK
The data set can be described thus: Mineralocorticoid Receptor Binding Assay ([3H]-aldosterone). The settings on record: [3H]-aldosterone binding, human MR expressed in Sf9 cells; read-out: MR Ki. The method, boiled down:
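Lysate supernatant of Sf9 cells expressing full-length human MR (20-25 μg protein) was incubated with 0.5 nM [3H]-aldosterone and test compound in molybdate/Tris/phosphate/glycerol buffer, pH 7.5, ~16 h at 4 °C. Bound ligand was filtered and counted by scintillation; IC50 is the concentration halving [3H]-aldosterone binding.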
`CNS(=O)(=O)c1cccc(C=C2c3ccccc3CCc3ccccc32)c1` [Example 1, 3-(10,11-Dihydro-dibenzo[a,d]cyclohepten-5-ylidenemethyl)-N-methyl-benzenesulfonamide]: the Ki was below 0.5 µM.
